Measured values published in patent US9247759B2, “Identification of human T2R receptors that respond to bitter compounds that elicit the bitter taste in compositions, and the use thereof in assays to identify compounds that inhibit (block) bitter taste in compositions and use thereof” (SENOMYX, INC., priority 2007, dated 2016).
Read-outs that look alike come from different tables or passages of the source.

Key:
hT2R14 [1] = molecular target: T1, hT2R14 (Homo sapiens (Human), UniProt Q9NYV8); assay: hT2R14 antagonist high-throughput FLIPR assay, stable cell line with G16g44, agonist aristolochic acid; type: cell-based
Outline: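 Compounds were co-applied with 3 μM aristolochic acid, a dose set to reach 70-80% of maximal hT2R14 activation. Read-out was FLIPR fluorescence in a stable HEK293 line co-expressing hT2R14 and G16g44.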

hT2R65 = assay: hT2R panel inhibition, transient HEK293 G16g44, agonist Oleuropein 1 mM; type: cell-based, human; settings: compound at 25 μM; receptor activated to EC80 with the corresponding agonist
Method: (§1) Specifically, in order to evaluate the inhibitory selectivity of the Compound C compound, this compound was tested against 22 human T2Rs which were deorphaned by Senomyx. These receptors and the bitter ligands that activate these human T2Rs are reported in earlier patent applications which are incorporated by reference herein. These 22 human T2Rs are hT2R1, 3, 4, 5, 7, 8, 9, 10, 13, 14, 16, 44, 51, 54, 55, 61, 63, 64, 65, 67, 71 and 75. The amino acid and nucleic acid sequences of all of these T2Rs may be found in these earlier patent applications. These human T2Rs were each individually transiently transfected into HEK293 cells that stably express the promiscuous G protein G16g44 and functional assays were effected using these receptors as disclosed in these same patent applications. […] The ligands were used at EC80 concentration levels. The list of bitter ligands utilized and the tested ligand concentrations are contained in Table 5 of this example.
(§2) Relating to the foregoing, FIG. 5 contains experimental results wherein Compound C was tested with different agonist compounds. The inhibition activity is represented by the reduction of receptor activity in the presence of Compound C. […] These 13 hT2Rs are hT2R3, 7, 10, 14, 16, 44, 51, 55, 61, 63, 64, 65, and 71.

hT2R44 = assay: hT2R panel inhibition, transient HEK293 G16g44, agonist Denatonium 0.5 μM; type: cell-based, human; settings: compound at 25 μM; for screening result against bitter receptor 44: receptor activated to EC80 with the corresponding agonist
Method: as §1, §2

hT2R16 = hT2R16 (Homo sapiens (Human), UniProt Q9NYV7); assay: hT2R panel inhibition, transient HEK293 G16g44, agonist Salicin 1 mM; type: cell-based; settings: HEK293, compound at 25 μM
Method: as §1, §2

hT2R14 [2] = molecular target: T1, hT2R14; assay: hT2R panel inhibition, transient HEK293 G16g44, agonist Aristolochic Acid 2 μM; type: cell-based; settings: HEK293, compound at 25 μM
Method: as §1

hT2R10 = hT2R10 (Homo sapiens (Human), UniProt Q9NYW0); assay: hT2R panel inhibition, transient HEK293 G16g44, agonist Strychnine 50 μM; type: cell-based; settings: HEK293, read-out: screening result against bitter receptor 10, compound at 25 μM; receptor activated to EC80 with the corresponding agonist
Method: as §1, §2

hT2R71 = hT2R71 (Homo sapiens (Human), UniProt P59536); assay: hT2R panel inhibition, transient HEK293 G16g44, agonist Picric Acid 10 μM; type: cell-based; settings: HEK293, compound at 25 μM
Method: as §1, §2

hT2R3 = hT2R3 (Homo sapiens (Human), UniProt Q9NYW6); assay: hT2R panel inhibition, transient HEK293 G16g44, agonist Chloroquine pH6.5 50 μM; type: cell-based; settings: HEK293, compound at 25 μM; receptor activated to EC80 with the corresponding agonist; read-out: screening result against bitter receptor 3
Method: as §1, §2

hT2R64 = hT2R64 (Homo sapiens (Human), UniProt P59538); assay: hT2R panel inhibition, transient HEK293 G16g44, agonist Aristolochic Acid 1 μM; type: cell-based; settings: HEK293, compound at 25 μM
Method: as §1, §2

hT2R54 = assay: hT2R panel inhibition, transient HEK293 G16g44, agonist Ranitidine 5 mM; type: cell-based, human; settings: compound at 25 μM; for screening result against bitter receptor 54: receptor activated to EC80 with the corresponding agonist; for inhibition of bitter receptor 54: receptor activated to EC80 with agonist
Method: as §1, §2

hT2R55 = assay: hT2R panel inhibition, transient HEK293 G16g44, agonist Cinchonine 150 μM; type: cell-based, human; settings: compound at 25 μM; for screening result against bitter receptor 55: receptor activated to EC80 with the corresponding agonist
Method: as §1, §2

hT2R5 = hT2R5 (Homo sapiens (Human), UniProt Q9NYW4); assay: hT2R panel inhibition, transient HEK293 G16g44, agonist Picoline 10 mM; type: cell-based; settings: HEK293, compound at 25 μM; receptor activated to EC80 with the corresponding agonist; read-out: screening result against bitter receptor 5
Method: as §1, §2

hT2R7 = hT2R7 (Homo sapiens (Human), UniProt Q9NYW3); assay: hT2R panel inhibition, transient HEK293 G16g44, agonist Chloroquine pH6.5 10 mM; type: cell-based; settings: HEK293, compound at 25 μM; receptor activated to EC80 with the corresponding agonist; read-out: screening result against bitter receptor 7
Method: as §1, §2

hT2R63 = assay: hT2R panel inhibition, transient HEK293 G16g44, agonist Caffeine 1 mM or Andrographolide 100 μM; type: cell-based, human; settings: compound at 25 μM; for screening result against bitter receptor 63: receptor activated to EC80 with the corresponding agonist
Method: as §1, §2

hT2R61 = hT2R61 (Homo sapiens (Human), UniProt P59537); assay: hT2R panel inhibition, transient HEK293 G16g44, agonist Aristolochic Acid 25 nM; type: cell-based; settings: HEK293, compound at 25 μM
Method: as §1, §2

hT2R67 = assay: hT2R panel inhibition, transient HEK293 G16g44, agonist Andrographolide 5 μM; type: cell-based, human; settings: compound at 25 μM; for screening result against bitter receptor 67: receptor activated to EC80 with the corresponding agonist
Method: as §1, §2

hT2R51 = hT2R51 (Homo sapiens (Human), UniProt P59533); assay: hT2R panel inhibition, transient HEK293 G16g44, agonist Prop 2.5 μM; type: cell-based; settings: HEK293, compound at 25 μM; receptor activated to EC80 with the corresponding agonist; read-out: screening result against bitter receptor 51
Method: as §1, §2

[3] = receptor activated to EC80 with the corresponding agonist, read-out: screening result against bitter receptor 16
[4] = receptor activated to EC80 with the corresponding agonist, read-out: screening result against bitter receptor 14
[5] = receptor activated to EC80 with the corresponding agonist, read-out: screening result against bitter receptor 71
[6] = receptor activated to EC80 with the corresponding agonist, read-out: screening result against bitter receptor 64
[7] = receptor activated to EC80 with the corresponding agonist, read-out: screening result against bitter receptor 61
[8] = receptor activated to EC80 with agonist
[9] = receptor activated to EC80 with agonist, read-out: inhibition of bitter receptor 14

Sequence of hT2R64 (P59538 whole entry): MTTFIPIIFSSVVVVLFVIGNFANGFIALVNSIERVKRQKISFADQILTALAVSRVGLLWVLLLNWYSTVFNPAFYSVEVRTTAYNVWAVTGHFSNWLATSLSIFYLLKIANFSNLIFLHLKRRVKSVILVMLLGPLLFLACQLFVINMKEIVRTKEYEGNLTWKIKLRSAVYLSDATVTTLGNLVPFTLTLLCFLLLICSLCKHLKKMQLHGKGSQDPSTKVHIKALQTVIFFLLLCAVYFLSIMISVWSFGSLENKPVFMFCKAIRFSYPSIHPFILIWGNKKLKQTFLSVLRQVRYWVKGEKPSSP
Sequence of hT2R71 (P59536 whole entry): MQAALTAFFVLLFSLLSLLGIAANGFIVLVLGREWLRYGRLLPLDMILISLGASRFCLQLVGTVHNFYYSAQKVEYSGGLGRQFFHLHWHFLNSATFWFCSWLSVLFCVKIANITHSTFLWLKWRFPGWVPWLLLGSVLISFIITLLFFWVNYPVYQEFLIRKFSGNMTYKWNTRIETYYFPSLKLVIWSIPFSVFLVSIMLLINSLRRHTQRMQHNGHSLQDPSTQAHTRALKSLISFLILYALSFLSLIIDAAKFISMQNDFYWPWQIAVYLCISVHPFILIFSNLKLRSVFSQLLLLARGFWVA
Sequence of hT2R7 (Q9NYW3 whole entry): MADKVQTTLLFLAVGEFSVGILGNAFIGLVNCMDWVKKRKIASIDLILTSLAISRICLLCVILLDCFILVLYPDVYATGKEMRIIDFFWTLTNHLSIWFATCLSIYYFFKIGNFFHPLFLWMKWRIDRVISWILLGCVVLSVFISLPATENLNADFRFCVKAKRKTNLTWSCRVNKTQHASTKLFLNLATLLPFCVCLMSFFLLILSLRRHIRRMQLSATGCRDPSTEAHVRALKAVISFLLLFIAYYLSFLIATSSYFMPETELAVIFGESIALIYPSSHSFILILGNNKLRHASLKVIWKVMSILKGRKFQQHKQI
Sequence of hT2R61 (P59537 whole entry): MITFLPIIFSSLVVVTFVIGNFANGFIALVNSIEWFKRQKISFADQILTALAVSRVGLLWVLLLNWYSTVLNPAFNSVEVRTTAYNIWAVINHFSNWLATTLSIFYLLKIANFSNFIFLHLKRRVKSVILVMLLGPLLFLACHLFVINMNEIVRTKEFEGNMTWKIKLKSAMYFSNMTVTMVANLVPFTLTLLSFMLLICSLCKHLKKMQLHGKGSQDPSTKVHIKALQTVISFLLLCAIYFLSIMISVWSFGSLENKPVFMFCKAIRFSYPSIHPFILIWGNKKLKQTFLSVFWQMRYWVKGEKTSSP
T1 sequence (Q9NYV8 whole entry): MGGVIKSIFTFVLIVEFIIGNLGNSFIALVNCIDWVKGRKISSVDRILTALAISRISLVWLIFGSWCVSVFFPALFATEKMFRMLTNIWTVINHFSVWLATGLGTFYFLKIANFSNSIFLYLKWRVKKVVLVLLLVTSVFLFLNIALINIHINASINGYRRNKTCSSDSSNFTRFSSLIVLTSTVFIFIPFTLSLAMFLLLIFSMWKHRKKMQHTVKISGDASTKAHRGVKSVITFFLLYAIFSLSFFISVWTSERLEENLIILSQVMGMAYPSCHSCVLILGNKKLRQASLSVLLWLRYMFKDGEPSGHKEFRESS
Sequence of hT2R3 (Q9NYW6 whole entry): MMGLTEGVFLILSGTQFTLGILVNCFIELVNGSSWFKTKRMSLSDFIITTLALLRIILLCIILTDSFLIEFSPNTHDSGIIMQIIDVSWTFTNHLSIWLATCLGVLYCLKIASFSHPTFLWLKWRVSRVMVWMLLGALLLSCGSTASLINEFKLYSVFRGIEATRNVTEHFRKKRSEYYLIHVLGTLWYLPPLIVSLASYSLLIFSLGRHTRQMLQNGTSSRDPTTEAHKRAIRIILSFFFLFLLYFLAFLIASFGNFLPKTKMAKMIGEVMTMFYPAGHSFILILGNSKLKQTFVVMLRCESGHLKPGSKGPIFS
Sequence of hT2R10 (Q9NYW0 whole entry): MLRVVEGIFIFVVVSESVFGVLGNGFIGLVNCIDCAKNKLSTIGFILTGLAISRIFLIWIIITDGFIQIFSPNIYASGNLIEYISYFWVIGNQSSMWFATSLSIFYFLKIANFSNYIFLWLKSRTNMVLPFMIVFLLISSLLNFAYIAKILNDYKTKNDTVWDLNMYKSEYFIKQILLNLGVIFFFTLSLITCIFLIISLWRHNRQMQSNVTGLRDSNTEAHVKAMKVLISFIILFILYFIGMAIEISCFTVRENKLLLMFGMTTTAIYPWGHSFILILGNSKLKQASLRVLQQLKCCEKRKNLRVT
Sequence of hT2R16 (Q9NYV7 whole entry): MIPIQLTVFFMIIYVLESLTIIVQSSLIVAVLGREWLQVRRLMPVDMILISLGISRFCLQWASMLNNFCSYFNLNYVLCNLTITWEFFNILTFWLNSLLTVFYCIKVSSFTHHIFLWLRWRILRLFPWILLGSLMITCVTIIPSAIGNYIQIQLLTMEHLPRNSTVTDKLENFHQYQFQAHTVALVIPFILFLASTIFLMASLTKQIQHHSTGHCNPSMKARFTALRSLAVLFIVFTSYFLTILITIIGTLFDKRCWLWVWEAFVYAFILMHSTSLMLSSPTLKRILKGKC
Sequence of hT2R5 (Q9NYW4 whole entry): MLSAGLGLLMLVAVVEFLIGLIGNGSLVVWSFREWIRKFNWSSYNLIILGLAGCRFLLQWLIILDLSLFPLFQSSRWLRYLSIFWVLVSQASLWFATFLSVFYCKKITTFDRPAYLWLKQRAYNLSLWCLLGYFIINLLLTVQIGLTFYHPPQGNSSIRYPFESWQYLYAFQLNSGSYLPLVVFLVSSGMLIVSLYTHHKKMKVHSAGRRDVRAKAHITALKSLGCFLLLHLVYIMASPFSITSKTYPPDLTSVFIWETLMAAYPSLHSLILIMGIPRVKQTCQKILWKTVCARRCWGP
Sequence of hT2R51 (P59533 whole entry): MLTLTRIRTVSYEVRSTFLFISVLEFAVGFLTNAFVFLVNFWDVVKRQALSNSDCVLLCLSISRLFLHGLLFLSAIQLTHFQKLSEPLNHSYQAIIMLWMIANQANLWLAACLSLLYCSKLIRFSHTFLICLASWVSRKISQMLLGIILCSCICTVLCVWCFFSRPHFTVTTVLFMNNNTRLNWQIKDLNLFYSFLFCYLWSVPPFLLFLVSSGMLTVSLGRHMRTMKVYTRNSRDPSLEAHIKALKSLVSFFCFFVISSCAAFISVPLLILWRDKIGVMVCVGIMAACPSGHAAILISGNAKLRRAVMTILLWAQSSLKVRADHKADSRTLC

Compound | screening result against bitter receptor 65 (hT2R65) | screening result against bitter receptor 44 (hT2R44) | inhibition at 25 µM (hT2R16; [3]) [%] | inhibition at 25 µM (hT2R14 [2]; [4]) [%] | inhibition at 25 µM (hT2R10) [%] | inhibition at 25 µM (hT2R71; [5]) [%] | inhibition at 25 µM (hT2R3) [%] | inhibition at 25 µM (hT2R64; [6]) [%] | screening result against bitter receptor 54 (hT2R54) | screening result against bitter receptor 55 (hT2R55) | inhibition at 25 µM (hT2R5) [%] | inhibition at 25 µM (hT2R7) [%] | screening result against bitter receptor 63 (hT2R63) | inhibition at 25 µM (hT2R61; [7]) [%] | screening result against bitter receptor 67 (hT2R67) | other results
COc1ccc(CN(CCc2ccccc2)S(=O)(=O)c2ccc(C(=O)O)cc2)cc1 [Example 5-19, 4-(N-(4-methoxybenzyl)-N-phenethylsulfamoyl)benzoic acid] | + (20% to 40% inhibition = +) | ++ (40% to 60% inhibition = ++) | 20 to 40 | > 80 | 20 to 40 | 20 to 40 | 20 to 40 | > 80 | + (20% to 40% inhibition = +) | ++++ (80% or greater inhibition = ++++) | 20 to 40 | – | – | – | – | IC50 (hT2R14 [1]; read-out: IC50 on hT2R14 bitter receptor): 4580 nM
COc1ccc(N(Cc2ccccc2)S(=O)(=O)c2ccc(C(=O)O)cc2)cc1 [Example 5-35, 4-(N-benzyl-N-(4-methoxyphenyl)sulfamoyl)benzoic acid] | – | + (20% to 40% inhibition = +) | 20 to 40 | 20 to 40 | – | 40 to 60 | 20 to 40 | 20 to 40 | + (20% to 40% inhibition = +) | +++ (60% to 80% inhibition = +++) | 20 to 40 | 20 to 40 | +++ (60% to 80% inhibition = +++) | > 80 | – | –
COc1ccc(CN(Cc2ccc(F)c(F)c2)S(=O)(=O)c2ccc(C(=O)O)cc2)cc1 [Example 5-36, 4-(N-(3,4-difluorobenzyl)-N-(4-methoxybenzyl)sulfamoyl)benzoic acid] | ++ (40% to 60% inhibition = ++) | ++ (40% to 60% inhibition = ++) | 20 to 40 | > 80 | 20 to 40 | 60 to 80 | 40 to 60 | > 80 | + (20% to 40% inhibition = +) | ++++ (80% or greater inhibition = ++++) | – | 20 to 40 | +++ (60% to 80% inhibition = +++) | > 80 | – | –
COc1ccc(CCN(Cc2ccccc2)S(=O)(=O)c2ccc(C(=O)O)cc2)cc1 [Example 5-81, 4-(N-benzyl-N-(4-methoxyphenethyl)sulfamoyl)benzoic acid] | + (20% to 40% inhibition = +) | ++ (40% to 60% inhibition = ++) | 20 to 40 | > 80 | 20 to 40 | 20 to 40 | 20 to 40 | 40 to 60 | – | +++ (60% to 80% inhibition = +++) | – | 20 to 40 | +++ (60% to 80% inhibition = +++) | 60 to 80 | + (20% to 40% inhibition = +) | inhibition at 25 µM (hT2R51): 20 to 40%
N#Cc1ccc(CN(Cc2ccccc2)S(=O)(=O)c2ccc(C(=O)O)cc2)cc1 [Example 5-91, 4-(N-benzyl-N-(4-cyanobenzyl)sulfamoyl)benzoic acid] | – | +++ (60% to 80% inhibition = +++) | 20 to 40 | > 80 | 40 to 60 | 60 to 80 | 60 to 80 | > 80 | + (20% to 40% inhibition = +) | ++++ (80% or greater inhibition = ++++) | 20 to 40 | – | ++++ (80% or greater inhibition = ++++) | > 80 | + (20% to 40% inhibition = +) | –
COc1ccc2c(c1)-c1ccccc1CN(S(=O)(=O)c1ccc(C(=O)O)cc1)C2 [Example 5-106, 4-(2-methoxy-5H-dibenzo[c,e]azepin-6(7H)-ylsulfonyl)benzoic acid] | – | – | – | – | – | – | – | – | – | – | – | – | – | – | – | inhibition of bitter receptor 44 (hT2R44; [8]): ++ (40% to 60% inhibition = ++); inhibition of bitter receptor 67 (hT2R67; [8]): + (20% to 40% inhibition = +); inhibition at 25 µM (hT2R16; receptor activated to EC80 with agonist, read-out: inhibition of bitter receptor 16): 20 to 40%; inhibition at 25 µM (hT2R14 [2]; [9]): > 80%; inhibition of bitter receptor 63 (hT2R63; [8]): ++++ (80% or greater inhibition = ++++); inhibition at 25 µM (hT2R71; receptor activated to EC80 with agonist, read-out: inhibition of bitter receptor 71): 20 to 40%; inhibition at 25 µM (hT2R64; receptor activated to EC80 with agonist, read-out: inhibition of bitter receptor 64): 60 to 80%; inhibition of bitter receptor 54 (hT2R54): ++ (40% to 60% inhibition = ++); inhibition at 25 µM (hT2R61; receptor activated to EC80 with agonist, read-out: inhibition of bitter receptor 61): 40 to 60%; inhibition of bitter receptor 55 (hT2R55; [8]): ++++ (80% or greater inhibition = ++++)
COc1ccc(CN(c2ccccc2)S(=O)(=O)c2ccc(C(=O)O)cc2)cc1 [Example 5-18, 4-(N-(4-methoxybenzyl)-N-phenylsulfamoyl)benzoic acid] | + (20% to 40% inhibition = +) | +++ (60% to 80% inhibition = +++) | 40 to 60 | – | > 80 | 40 to 60 | – | > 80 | ++ (40% to 60% inhibition = ++) | ++++ (80% or greater inhibition = ++++) | – | – | +++ (60% to 80% inhibition = +++) | 60 to 80 | – | –
O=C(O)c1ccc(CN(Cc2ccccc2)S(=O)(=O)c2ccc(C(=O)O)cc2)cc1 [Example 5-48, 4-((N-benzyl-4-carboxyphenylsulfonamido)methyl)benzoic acid] | ++ (40% to 60% inhibition = ++) | +++ (60% to 80% inhibition = +++) | 20 to 40 | > 80 | 60 to 80 | 60 to 80 | 40 to 60 | 60 to 80 | ++ (40% to 60% inhibition = ++) | ++++ (80% or greater inhibition = ++++) | 20 to 40 | – | – | > 80 | + (20% to 40% inhibition = +) | –
Cn1c(=O)c2cc(S(=O)(=O)Nc3ccc4c(c3)OCCO4)ccc2n(C)c1=O [Example 6-6, N-(2,3-dihydrobenzo[b][1,4]dioxin-6-yl)-1,3-dimethyl-2,4-dioxo-1,2,3,4-tetrahydroquinazoline-6-sulfonamide] | – | – | – | – | – | – | – | – | – | – | – | – | – | – | – | IC50 (hT2R14 [1]; Table D, read-out: hT2R14 IC50): 706 nM; inhibition at 25 µM (hT2R14 [2]; [9]): > 80%; inhibition of bitter receptor 54 (hT2R54): + (20% to 40% inhibition = +); screening result against bitter receptor 55, printed as a number (meaning not defined) (hT2R55; receptor activated to EC80 with agonist, numeric cell): 210
